Data on 4 compounds can be found in patent US10704076B2, “Multi-tiered high through-put screen for compounds effective against bacterial biofilm and compounds effective for inhibiting and eradicating bacterial biofilm” (University of Cincinnati, priority 2013, dated 2020).

For orientation: AC50 means the concentration giving half of the maximal activity seen.

Structures are written as SMILES. Entries after “also recorded” stand apart in the source; their conditions may differ. Some results are limits rather than exact numbers.

The test system of experiment [1] is P. aeruginosa biofilm. In words: HTS total biofilm formation assay (crystal violet staining). It is filed as cell-based, Pseudomonas aeruginosa. The note with it: for AC50: 10 point dose-response 0.1-50 μM. The text has this: (§1) Each HTS tier consisted of: (i) primary screening, (ii) confirmation screening and (iii) dose-response curve screening. Each tier of HTS included three distinct biological process assays. The first assay was an optical density measurement of bacteria growth in the presence of each compound reported as a total bacteria growth. In the second assay, resazurin solution was used as an indicator of metabolic activity to measure the live bacteria in the biofilms, reported as live biofilm. The final assay was crystal violet staining, which indicated the amount of biofilm formation and the effect of each compound on this process, reported as total biofilm formation.
(§2) Briefly, stationary phase bacteria grown in L-broth were diluted 1:200 into fresh L-broth and 50 μM of each test compound. After 20-24 hours, the optical density (OD560) of each suspension was measured using Zeiss Plate::Vision with a 560 BP filter (560 nm, 2.5% light intensity, 1 mm focus to bottom of plate, and exposure time of 100 ms). To measure bacterial viability in the biofilm, 50 μl of a 5 mg/ml resazurin solution in L-broth was added to each well after washing 3 times with 50 μl of PBS. The plates were then incubated at 37° C. for 30 or 180 min for A. baumannii and P. aeruginosa biofilms, respectively. Fluorescence was measured using Zeiss Plate::Vision at excitation and emission wavelengths of 535 and 580 nm, 100 ms exposure time, 2.5% intensity and a 2 mm focus to the bottom of the biofilms. To assess biofilm formation, plates were washed 3 times with PBS and then 50 μl of 0.01% of crystal violet was added to each well to assess bacterial biofilm formation as described in a similar borosilicate tube assay by O'Toole and Kolter. After incubation at room temperature for 30 min and removal of the crystal violet solution by washing with PBS, 95% ethanol was added to solubilize the crystal violet followed by incubation for 20 min at room temperature. Finally, the optical density of each plate was determined using measured by Zeiss Plate::Vision using the same settings used to measure total bacterial growth. These 3 steps were used in each of the three tiers for the HTS process: (i) single point primary screening at 10 μM, (ii) triplicate confirmation of hits from (i) at 10 μM and (iii) determination of AC50 values in 10 point dose-response at a concentration range of 0.1-50 μM) in hits from (ii). The AC50 represents the concentration of compound that inhibits 50% of bacterial growth, bacterial viability, or biofilm formation. Genedata Screener® Assay Analyzer Software (Ver. 9.0.0 Standard) was used to analyze data from all assay tiers. Compounds with an AC50 of less than 20 μM in one of the biological assays from the dose response screen were subject to additional investigation.

For experiment [2], the system named is P. aeruginosa. In words: HTS total bacterial growth assay (optical density OD560). Type of experiment: cell-based, Pseudomonas aeruginosa. The note with it: for AC50: Pseudomonas aeruginosa, 10 point dose-response 0.1-50 μM, read-out: Total Bacteria Growth AC50.
Text: as §1, §2

In experiment [3] the test system is P. aeruginosa established biofilm. In words: CLSM, effect of compound on the pre-existing biofilm. Type of experiment: cell-based, Pseudomonas aeruginosa. The note with it: for Effect of compound on the pre-existing biofilm: Dispersion: ** = Bacterial morphology changed. Here is the method:
(§3) Broad spectrum agents (effective against all three bacterial species) and single agent compounds identified as HTS hits were investigated with CLSM confirmation of inhibition of biofilm formation (culture of bacteria with compounds) or killing of bacteria residing within an established biofilm (compound addition after culturing biofilm). To evaluate inhibition of P. aeruginosa biofilms, bacteria were sub-cultured into 10% L-broth and grown at 37° C. until the OD600 reached 0.25. The bacteria were further diluted 1:100 into a modified 0.5×M63 minimum media (50 mM KH2PO4, 7.5 mM (NH4)2SO4, 9 μM FeSO4, 0.5% casamino acids, 0.2% glucose, and 1 mM MgSO4). A. baumannii biofilms were also grown in 10% L-broth until the OD600 reached 0.05 but diluted 1:10 into 5% L-broth media. S. epidermidis biofilm cultures were grown. Briefly, the bacteria were grown in TSB until the OD600 reached 0.75, and a 1:100 dilution of the bacteria was sub-cultured into phosphate buffered saline (PBS). All of the biofilm bacterial cultures were grown in 96-well plate chambers (MatTek Corp., Ashland, Mass.) in the presence of 10 μM of each compound or DMSO as a control and incubated for 18 hrs at 37° C. To investigate the ability of compounds to kill bacteria within pre-existing biofilms, biofilms were grown under the same conditions, but without test compound. These biofilms were washed once with PBS and incubated an additional 24 hr at 37° C. in PBS containing 300 μM of each compound. All biofilm cultures were then washed twice with 100 μL of PBS and stained using the LIVE/DEAD® BacLight™ Bacterial Viability Kit (Invitrogen). Finally, biofilm images were obtained using a Zeiss LSM510 META Confocal Microscope (Carl Zeiss, Inc., Germany). A 488 nm laser was used in conjunction with a Plan-Apochromat 100×/1.4 Oil DIC objective. Z-stacks were 8 bit and measured 127.3 μm×127.3 μm×16.0 μm in size. The filters used were 505-530 and 620-680 IR, as the excitation and emission wavelengths for red fluorescence are 490 nm and 635 nm, respectively, and 480 nm and 500 nm for green fluorescence. Three dimensional images were generated using the “Projection” ability on LSM Image Browser software (v.1.4.0.121) or Zeiss LSM image browser software version 3.5 (Carl Zeiss, Inc., Germany), and Live/Dead calculations were conducted based upon these images using MacBiophotonics ImageJ following the guidelines in the cell counting guide by C. Labno {Rasband, 1997-2011 #25; Labno, #2} at the University of Chicago Integrated Light Microscopy Core. The thickness of the biofilm was calculated using Comstat software. A hit was defined as a >50% dead to live ratio.
(§4) The CLSM experiment was performed in one or two or all bacteria used in this study depending on its activity. For the validation of HTS hits, 10 μM of compound was added to each bacterial suspension and the resulting biofilm stained with LIVE/DEAD® BacLight™ Bacterial Viability Kit. The images were analyzed to determine the live and dead ratios of biofilm bacteria, the thickness of biofilms, and structural attributes of biofilms.

Experiment [4] deals with A. baumannii biofilm. As to the kind of experiment: HTS total biofilm formation assay (crystal violet staining). Type of experiment: cell-based, Acinetobacter baumannii. The following applies: for AC50: Acinetobacter baumannii, 10 point dose-response 0.1-50 μM.
Text: as §1, §2

For experiment [5], the system named is A. baumannii biofilm. As to the kind of experiment: HTS live biofilm assay (resazurin metabolic activity). The following applies: for AC50: Acinetobacter baumannii, 10 point dose-response 0.1-50 μM. It is filed as cell-based, Acinetobacter baumannii.
Text: as §1, §2
A general note: Alamar Blue is a resazurin reagent that responds to reducing activity.

Experiment [6] relates to S. epidermidis. As to the kind of experiment: HTS total bacterial growth assay (optical density OD560). Type of experiment: cell-based. The note with it: Staphylococcus epidermidis, dose-response, read-out: Total Bacteria Growth AC50.
Text: as §1, §2

For experiment [7], the system named is S. epidermidis biofilm. As to the kind of experiment: CLSM, co-culture of bacteria with compound (inhibition of biofilm formation). It is filed as cell-based, Staphylococcus epidermidis. The following applies: for killing of residential bacteria, co-culture (CLSM, in words): 10 μM; for Co-culture of bacteria with compound: Killing: CLSM, 10 μM compound, 18 hrs, Y / —. Here is the method: as §3, §4

For experiment [8], the system named is P. aeruginosa biofilm. In words: HTS live biofilm assay (resazurin metabolic activity). It is filed as cell-based. The following applies: Pseudomonas aeruginosa, 10 point dose-response 0.1-50 μM.
Text: as §1, §2

Experiment [9] has as its system A. baumannii biofilm. As to the kind of experiment: CLSM, co-culture of bacteria with compound (inhibition of biofilm formation). Type of experiment: cell-based, Acinetobacter baumannii. The note with it: for killing of residential bacteria, co-culture (CLSM, in words): 10 μM; for Co-culture of bacteria with compound: Killing: Y / —. Here is the method: as §3, §4

Regarding `Cn1sc(Cl)c(C#N)c1=O` [Compound 3, 5-chloro-2-methyl-3-oxo-1,2-thiazole-4-carbonitrile], the AC50 in experiment [1] (Pseudomonas aeruginosa) is 3.07 µM; in [2], 9.27 µM; in experiment [4] it was 4.45 µM; in experiment [5], 4.04 µM; in [6], 8.89 µM; in [8], 13.4 µM. For the same compound, the “killing of established P. aeruginosa biofilm (CLSM, in words)” value in experiment [3] (300 μM, 24 hr) is reported as “demonstrated killing; also recorded: effective at killing”. The “Effect of compound on the pre-existing biofilm: Killing” value in experiment [3] (CLSM, 300 μM compound, 24 hr, Y / —) was “Y (A hit was defined as a >50% dead to live ratio)”. Also, the “killing of residential bacteria, co-culture (CLSM, in words)” value (shortened to “killing of residential bacteria”) in experiment [7] and in experiment [9] was “killed residential bacteria” throughout. In addition, the “Co-culture of bacteria with compound: Killing” value in [7] is “Y (A hit was defined as a >50% dead to live ratio)”; in [9] (CLSM, 10 μM compound, 18 hrs) it was “Y (A hit was defined as a >50% dead to live ratio)”.

Turning to `NC(=S)N1CCN(c2cc3c(cc2F)c(=O)c(C(=O)O)cn3C2CC2)CC1` [Compound 7, 7-(4-carbamothioylpiperazin-1-yl)-1-cyclopropyl-6-fluoro-4-oxoquinoline-3-carboxylic acid], the AC50 turned out to be 7.81 µM in [1] (Pseudomonas aeruginosa); 3 µM in [2]; 17.7 µM in experiment [4]; 8.45 µM in [5]; 2.2 µM in experiment [6]; 0.38 µM in experiment [8]. Moreover, the “Effect of compound on the pre-existing biofilm: Dispersion” value (“Effect of compound … Dispersion” for short) in [3] (CLSM, 300 μM compound, 24 hr) was “caused dispersion and Y**”. Further, in experiment [3], the “bacterial morphology in established P. aeruginosa biofilm (CLSM)” value was “altered the morphology”. Moreover, the “killing of residential bacteria” value in [7] and in [9] was “killed residential bacteria” throughout. For the same compound, the “Co-culture of bacteria with compound: Killing” value in experiment [7] was “Y (A hit was defined as a >50% dead to live ratio)”; in [9] (CLSM, 10 μM compound, 18 hrs) it was “Y (A hit was defined as a >50% dead to live ratio)”.

`O=C(O)c1cn(C2CC2)c2c(F)c(N3CC(O)C3)c(F)cc2c1=O` [Compound 8, 1-cyclopropyl-6,8-difluoro-7-(3-hydroxyazetidin-1-yl)-4-oxoquinoline-3-carboxylic acid]: the AC50 in experiment [1] is 10.3 µM; in [2], 44.4 µM; in experiment [5] it was 2.33 µM; in experiment [6], less than 0.1 µM; in experiment [8], 57 µM. The “HTS assay results: Biofilm Formation” value in experiment [1] (Y / —) and in experiment [4] (Y / —) was “—* (AC50 higher than 20 μM)” in each case. In addition, the “HTS assay results: Total Bacteria growth” value in [2] (Y / —) is recorded as “—* (AC50 higher than 20 μM)”. In experiment [3] (300 μM), the “biofilm architecture / thickness of established P. aeruginosa biofilm (CLSM)” value was “thinner biofilm architecture”. The “Effect of compound … Dispersion” value in [3] (CLSM, 300 μM compound, 24 hr) was “caused dispersion and Y**”. In [3], the “bacterial morphology in established P. aeruginosa biofilm (CLSM)” value is on record as “altered the morphology”. Also, in experiment [5] (Y / —), the “HTS assay results: Live Bacteria” value was “—* (AC50 higher than 20 μM)”. In addition, the “killing of residential bacteria” value in experiment [7] and in [9] was “killed residential bacteria” each time. The “Co-culture of bacteria with compound: Killing” value in experiment [7] was “Y (A hit was defined as a >50% dead to live ratio)”; in experiment [9] (CLSM, 10 μM compound, 18 hrs) it was “Y (A hit was defined as a >50% dead to live ratio)”.

With `O=C(O)c1cn(C2CC2)c2c(F)c(-c3ccncc3)c(F)cc2c1=O` [Compound 11, 7-(4-pyridyl)-1-cyclopropyl-6,8-difluoro-4-oxoquinoline-3-carboxylic acid], the AC50 was 7.4 µM in experiment [1] (Pseudomonas aeruginosa); 16 µM in [2]; 0.85 µM in experiment [4]; 0.61 µM in experiment [5]; less than 0.1 µM in experiment [6]; 9.6 µM in experiment [8]. Further, the “biofilm architecture / thickness of established P. aeruginosa biofilm (CLSM)” value in experiment [3] (300 μM) was “thinner biofilm architecture”. Besides, in experiment [3] (CLSM, 300 μM compound, 24 hr), the “Effect of compound … Dispersion” value is “caused dispersion and Y**”. For the same compound, in [3], the “bacterial morphology in established P. aeruginosa biofilm (CLSM)” value is listed as “altered the morphology”. For the same compound, in experiment [7], the “killing of residential bacteria” value is given as “killed”. The “Co-culture of bacteria with compound: Killing” value in [7] is recorded as “Y (A hit was defined as a >50% dead to live ratio)”. Also, in experiment [9] (CLSM, 10 μM compound, 18 hrs), the “Co-culture of bacteria with compound: Inhibit biofilm formation” value was “inhibited biofilm formation”.
